Paper PMC3321104 (Bioorganic & medicinal chemistry letters, 2012)
Where two headings read alike, the source gives them in different places.

Columns and labels:
[1] = system: Vero cell; assay: Vero cell toxicity; type: cell-based; conditions: concentrations up to 25 μM
[2] = system: chloroquine-resistant P. falciparum strain W2
[3] = system: chloroquine-resistant P. falciparum strain W2; assay: microbe, parasite or virus in culture; conditions: Plasmodium falciparum

With `O=C(Cn1ccnc1[N+](=O)[O-])NCc1ccccc1` [BNZ, benznidazole] the “Vero cell toxicity (in words)” value [1] was “non-toxic”.
In the case of `CC1=C(CCCCC[P+](c2ccccc2)(c2ccccc2)c2ccccc2)C(=O)c2ccccc2C1=O` [9n], the “fold greater activity than control 4a” value [2] is reported as 3–7 fold.
With `CCN(CC)CCCC(C)Nc1ccnc2cc(Cl)ccc12` (centres unmarked) [CQ, chloroquine] the IC50 ([3]; W2, read-out: IC50 (nM), P. falciparum growth) was 66.9 ± 2.3 nM and the IC50 ([3]; W2, read-out: IC50, P. falciparum W2) was 66.9 nM.
For `CC1=C(CCCC[P+](c2ccccc2)(c2ccccc2)c2ccccc2)C(=O)c2ccccc2C1=O` [9o, (4-(3-methyl-1,4-dioxo-1,4-dihydronaphthalen-2-yl)butyl)triphenyl-phosphonium methanesulfonate], the “Vero cell toxicity (in words)” value [1] was “not displaying toxicity at 25 μM”.
